Reference: ChEMBL document CHEMBL4800729 (2021)

Key:
[1] = molecular target: Motilin receptor (Homo sapiens) (UniProt O43193); conditions: Compound concentration 10.0 uM
[2] = molecular target: Serine/threonine-protein kinase 25 (Homo sapiens) (UniProt O00506); experiment: STK25(h) Millipore kinase panel; conditions: Compound concentration 1.0 uM
[3] = molecular target: Serine/threonine-protein kinase N2 (Homo sapiens) (UniProt Q16513); experiment: PRK2(h) Millipore kinase panel; conditions: Compound concentration 1.0 uM
[4] = molecular target: Insulin receptor (Homo sapiens) (UniProt P06213); experiment: IR(h),activated Millipore kinase panel; conditions: Compound concentration 1.0 uM
[5] = molecular target: Serine/threonine-protein kinase MRCK alpha (Homo sapiens) (UniProt Q5VT25); experiment: MRCKalpha(h) Millipore kinase panel; conditions: Compound concentration 1.0 uM
[6] = molecular target: B2 bradykinin receptor (Homo sapiens) (UniProt P30411); conditions: Compound concentration 10.0 uM
B2 bradykinin receptor (Homo sapiens), sequence (P30411 whole entry): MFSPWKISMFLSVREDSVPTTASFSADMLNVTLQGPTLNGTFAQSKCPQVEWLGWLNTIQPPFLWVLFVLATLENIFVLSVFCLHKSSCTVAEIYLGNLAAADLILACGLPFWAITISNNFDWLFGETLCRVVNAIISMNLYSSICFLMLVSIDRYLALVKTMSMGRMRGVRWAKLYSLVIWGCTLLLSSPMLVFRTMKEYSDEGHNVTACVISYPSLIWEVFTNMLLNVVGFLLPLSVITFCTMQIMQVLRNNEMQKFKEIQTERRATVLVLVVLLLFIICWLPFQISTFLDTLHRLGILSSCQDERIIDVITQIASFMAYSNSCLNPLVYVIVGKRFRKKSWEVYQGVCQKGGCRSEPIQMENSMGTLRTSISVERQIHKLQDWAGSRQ

[7] = molecular target: Calcium/calmodulin-dependent protein kinase type 1 (Homo sapiens) (UniProt Q14012); experiment: CaMKI(h) Millipore kinase panel; conditions: Compound concentration 1.0 uM
[8] = molecular target: Gamma-aminobutyric acid type B receptor subunit 1 (Homo sapiens) (UniProt Q9UBS5); conditions: Rattus norvegicus; Compound concentration 10.0 uM
[9] = molecular target: Casein kinase II subunit alpha' (Homo sapiens) (UniProt P19784); experiment: CK2alpha2(h) Millipore kinase panel; conditions: Compound concentration 1.0 uM
[10] = molecular target: Cyclin-dependent kinase-like 2 (Homo sapiens) (UniProt Q92772); experiment: CDKL2(h) Millipore kinase panel; conditions: Compound concentration 1.0 uM
[11] = molecular target: Platelet-derived growth factor receptor alpha (Homo sapiens) (UniProt P16234); experiment: PDGFRalpha Millipore kinase panel; conditions: Compound concentration 1.0 uM
Platelet-derived growth factor receptor alpha (Homo sapiens), sequence (P16234 whole entry): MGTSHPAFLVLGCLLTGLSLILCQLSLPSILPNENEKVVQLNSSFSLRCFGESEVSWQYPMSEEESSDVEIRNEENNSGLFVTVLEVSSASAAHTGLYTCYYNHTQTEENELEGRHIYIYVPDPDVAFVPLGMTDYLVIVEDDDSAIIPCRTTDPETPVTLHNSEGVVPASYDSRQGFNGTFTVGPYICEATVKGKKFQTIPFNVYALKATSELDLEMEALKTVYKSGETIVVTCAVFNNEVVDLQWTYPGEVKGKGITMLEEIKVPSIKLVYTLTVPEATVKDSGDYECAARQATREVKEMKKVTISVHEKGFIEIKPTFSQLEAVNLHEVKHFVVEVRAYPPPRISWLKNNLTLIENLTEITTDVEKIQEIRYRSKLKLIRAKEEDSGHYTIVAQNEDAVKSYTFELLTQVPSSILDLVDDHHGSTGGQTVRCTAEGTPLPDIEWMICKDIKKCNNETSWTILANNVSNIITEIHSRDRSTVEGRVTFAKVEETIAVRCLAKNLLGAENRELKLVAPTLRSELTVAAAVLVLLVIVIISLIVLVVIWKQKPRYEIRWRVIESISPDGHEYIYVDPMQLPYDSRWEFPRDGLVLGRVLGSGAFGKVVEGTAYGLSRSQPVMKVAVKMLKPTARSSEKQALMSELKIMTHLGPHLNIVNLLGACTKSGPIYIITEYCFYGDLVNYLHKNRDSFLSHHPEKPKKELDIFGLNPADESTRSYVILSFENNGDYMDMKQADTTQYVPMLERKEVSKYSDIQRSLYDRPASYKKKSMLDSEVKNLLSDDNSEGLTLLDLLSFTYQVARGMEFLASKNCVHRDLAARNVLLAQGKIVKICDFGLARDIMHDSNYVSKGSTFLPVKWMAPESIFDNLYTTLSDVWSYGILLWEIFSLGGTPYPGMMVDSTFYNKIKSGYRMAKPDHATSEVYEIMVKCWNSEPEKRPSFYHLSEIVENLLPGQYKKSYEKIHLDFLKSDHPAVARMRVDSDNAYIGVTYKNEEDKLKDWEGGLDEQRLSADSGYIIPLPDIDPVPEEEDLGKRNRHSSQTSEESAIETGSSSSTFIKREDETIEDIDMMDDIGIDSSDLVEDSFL

[12] = molecular target: Mitogen-activated protein kinase kinase kinase 21 (Homo sapiens) (UniProt Q5TCX8); experiment: MLK4(h) Millipore kinase panel; conditions: Compound concentration 1.0 uM
[13] = molecular target: SRSF protein kinase 3 (Homo sapiens) (UniProt Q9UPE1); experiment: MSSK1(h) Millipore kinase panel; conditions: Compound concentration 1.0 uM
SRSF protein kinase 3 (Homo sapiens), sequence (Q9UPE1 whole entry): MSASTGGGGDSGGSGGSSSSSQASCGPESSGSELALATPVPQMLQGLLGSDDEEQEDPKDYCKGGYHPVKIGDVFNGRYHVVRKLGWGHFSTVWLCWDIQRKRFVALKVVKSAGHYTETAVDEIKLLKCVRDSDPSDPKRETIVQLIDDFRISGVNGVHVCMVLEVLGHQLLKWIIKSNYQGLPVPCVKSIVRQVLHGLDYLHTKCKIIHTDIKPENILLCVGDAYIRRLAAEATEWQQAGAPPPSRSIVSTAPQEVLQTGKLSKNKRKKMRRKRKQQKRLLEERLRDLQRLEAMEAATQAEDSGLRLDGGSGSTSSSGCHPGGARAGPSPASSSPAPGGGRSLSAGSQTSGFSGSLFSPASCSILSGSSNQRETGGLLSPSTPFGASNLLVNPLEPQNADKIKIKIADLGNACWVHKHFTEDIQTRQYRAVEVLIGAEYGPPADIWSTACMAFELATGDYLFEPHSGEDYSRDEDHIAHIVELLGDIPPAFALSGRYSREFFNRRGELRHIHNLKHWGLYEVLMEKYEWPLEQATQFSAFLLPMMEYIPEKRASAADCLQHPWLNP

[14] = molecular target: Tyrosine-protein kinase Lck (Homo sapiens) (UniProt P06239); experiment: Lck(h) Millipore kinase panel; conditions: Compound concentration 1.0 uM
Tyrosine-protein kinase Lck (Homo sapiens), sequence (P06239 2-509 limits assumed): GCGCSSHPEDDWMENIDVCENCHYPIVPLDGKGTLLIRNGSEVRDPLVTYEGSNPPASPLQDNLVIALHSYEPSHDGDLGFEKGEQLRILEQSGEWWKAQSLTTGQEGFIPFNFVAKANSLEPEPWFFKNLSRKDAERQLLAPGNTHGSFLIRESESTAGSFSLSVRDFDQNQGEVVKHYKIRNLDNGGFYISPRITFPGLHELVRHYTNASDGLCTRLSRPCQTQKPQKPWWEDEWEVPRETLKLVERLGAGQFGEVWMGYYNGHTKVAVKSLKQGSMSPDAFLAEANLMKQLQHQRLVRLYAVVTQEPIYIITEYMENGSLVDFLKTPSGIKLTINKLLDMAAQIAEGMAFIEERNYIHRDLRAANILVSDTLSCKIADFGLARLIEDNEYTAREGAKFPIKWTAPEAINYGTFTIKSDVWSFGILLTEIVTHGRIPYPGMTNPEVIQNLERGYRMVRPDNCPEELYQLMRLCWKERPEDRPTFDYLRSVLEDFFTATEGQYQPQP

[15] = molecular target: D(2) dopamine receptor (Homo sapiens) (UniProt P14416); conditions: Compound concentration 10.0 uM
[16] = molecular target: Transient receptor potential cation channel subfamily M member 7 (Homo sapiens) (UniProt Q96QT4); experiment: ChaK1(h) Millipore kinase panel; conditions: Compound concentration 1.0 uM
[17] = molecular target: Serine/threonine-protein kinase VRK1 (Homo sapiens) (UniProt Q99986); experiment: VRK1(h) Millipore kinase panel; conditions: Compound concentration 1.0 uM
[18] = molecular target: D(3) dopamine receptor (Homo sapiens) (UniProt P35462); conditions: Compound concentration 10.0 uM
D(3) dopamine receptor (Homo sapiens), sequence (P35462 whole entry): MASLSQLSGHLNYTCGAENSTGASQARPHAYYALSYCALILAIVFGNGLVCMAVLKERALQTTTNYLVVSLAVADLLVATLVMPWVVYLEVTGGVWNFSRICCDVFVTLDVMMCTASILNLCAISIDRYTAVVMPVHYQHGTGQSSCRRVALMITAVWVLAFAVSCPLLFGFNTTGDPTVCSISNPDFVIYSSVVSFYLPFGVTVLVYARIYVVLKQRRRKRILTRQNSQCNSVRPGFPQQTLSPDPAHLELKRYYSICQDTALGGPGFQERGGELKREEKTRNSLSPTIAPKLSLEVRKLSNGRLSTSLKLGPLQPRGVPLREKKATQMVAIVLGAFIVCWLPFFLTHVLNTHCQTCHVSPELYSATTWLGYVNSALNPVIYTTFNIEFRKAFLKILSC

[19] = molecular target: Mu-type opioid receptor (Homo sapiens) (UniProt P35372); conditions: Compound concentration 10.0 uM
Mu-type opioid receptor (Homo sapiens), sequence (P35372 whole entry): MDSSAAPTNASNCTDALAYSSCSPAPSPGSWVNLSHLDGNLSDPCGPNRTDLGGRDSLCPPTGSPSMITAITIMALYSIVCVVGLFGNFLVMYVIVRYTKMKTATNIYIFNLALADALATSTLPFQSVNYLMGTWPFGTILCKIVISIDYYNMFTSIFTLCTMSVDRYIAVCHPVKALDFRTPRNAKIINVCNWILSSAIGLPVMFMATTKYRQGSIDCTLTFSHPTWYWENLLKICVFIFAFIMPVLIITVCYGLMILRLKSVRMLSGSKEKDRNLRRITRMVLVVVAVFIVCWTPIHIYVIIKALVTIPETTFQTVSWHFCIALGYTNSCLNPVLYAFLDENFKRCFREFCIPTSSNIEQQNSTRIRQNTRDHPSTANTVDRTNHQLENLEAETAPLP

[20] = molecular target: Serine/threonine-protein kinase 26 (Homo sapiens) (UniProt Q9P289); experiment: MST4(h) Millipore kinase panel; conditions: Compound concentration 1.0 uM
Serine/threonine-protein kinase 26 (Homo sapiens), sequence (Q9P289 2-416 limits assumed): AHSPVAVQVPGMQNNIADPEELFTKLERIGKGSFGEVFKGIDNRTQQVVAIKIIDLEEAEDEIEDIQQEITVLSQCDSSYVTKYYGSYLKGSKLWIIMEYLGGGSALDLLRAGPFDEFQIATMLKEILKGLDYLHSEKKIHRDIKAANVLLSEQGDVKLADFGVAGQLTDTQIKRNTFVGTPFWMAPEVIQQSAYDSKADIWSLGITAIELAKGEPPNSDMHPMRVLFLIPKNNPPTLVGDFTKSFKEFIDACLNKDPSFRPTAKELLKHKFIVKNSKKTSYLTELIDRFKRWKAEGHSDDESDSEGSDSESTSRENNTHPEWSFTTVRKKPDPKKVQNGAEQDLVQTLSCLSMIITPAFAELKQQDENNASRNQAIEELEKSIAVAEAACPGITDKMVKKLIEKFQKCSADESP

[21] = molecular target: Serine/threonine-protein kinase NIM1 (Homo sapiens) (UniProt Q8IY84); experiment: NIM1(h) Millipore kinase panel; conditions: Compound concentration 1.0 uM
[22] = molecular target: Dual specificity protein kinase CLK3 (Homo sapiens) (UniProt P49761); experiment: CLK3(h) Millipore kinase panel; conditions: Compound concentration 1.0 uM
[23] = molecular target: Protein kinase C gamma type (Homo sapiens) (UniProt P05129); experiment: PKCgamma(h) Millipore kinase panel; conditions: Compound concentration 1.0 uM
[24] = molecular target: Type-1 angiotensin II receptor (Homo sapiens) (UniProt P30556); conditions: Compound concentration 10.0 uM
[25] = molecular target: 5-hydroxytryptamine receptor 5A (Homo sapiens) (UniProt P47898); conditions: Compound concentration 10.0 uM
5-hydroxytryptamine receptor 5A (Homo sapiens), sequence (P47898 whole entry): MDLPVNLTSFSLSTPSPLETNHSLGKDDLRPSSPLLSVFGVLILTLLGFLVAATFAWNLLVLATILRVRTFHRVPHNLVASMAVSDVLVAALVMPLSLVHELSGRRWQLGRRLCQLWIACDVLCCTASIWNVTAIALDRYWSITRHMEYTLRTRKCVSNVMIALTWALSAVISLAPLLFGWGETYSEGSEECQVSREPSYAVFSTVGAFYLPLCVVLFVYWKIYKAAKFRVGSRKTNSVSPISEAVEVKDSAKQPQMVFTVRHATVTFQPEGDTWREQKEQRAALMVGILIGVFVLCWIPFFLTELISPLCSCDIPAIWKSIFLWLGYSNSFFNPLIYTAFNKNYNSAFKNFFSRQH

[26] = molecular target: Serine/threonine-protein kinase 32A (Homo sapiens) (UniProt Q8WU08); experiment: STK32A(h) Millipore kinase panel; conditions: Compound concentration 1.0 uM
[27] = molecular target: Serine/threonine-protein kinase 35 (Homo sapiens) (UniProt Q8TDR2); experiment: CLIK1(h) Millipore kinase panel; conditions: Compound concentration 1.0 uM
[28] = molecular target: Histamine H3 receptor (Homo sapiens) (UniProt Q9Y5N1); conditions: Compound concentration 10.0 uM
[29] = molecular target: Serine/threonine-protein kinase MRCK gamma (Homo sapiens) (UniProt Q6DT37); experiment: MRCKgamma(h) Millipore kinase panel; conditions: Compound concentration 1.0 uM
[30] = molecular target: Serine/threonine-protein kinase BRSK2 (Homo sapiens) (UniProt Q8IWQ3); experiment: BrSK2(h) Millipore kinase panel; conditions: Compound concentration 1.0 uM
[31] = molecular target: 5-hydroxytryptamine receptor 6 (Homo sapiens, UniProt P50406); conditions: Compound concentration 10.0 uM
5-hydroxytryptamine receptor 6, sequence (P50406 whole entry): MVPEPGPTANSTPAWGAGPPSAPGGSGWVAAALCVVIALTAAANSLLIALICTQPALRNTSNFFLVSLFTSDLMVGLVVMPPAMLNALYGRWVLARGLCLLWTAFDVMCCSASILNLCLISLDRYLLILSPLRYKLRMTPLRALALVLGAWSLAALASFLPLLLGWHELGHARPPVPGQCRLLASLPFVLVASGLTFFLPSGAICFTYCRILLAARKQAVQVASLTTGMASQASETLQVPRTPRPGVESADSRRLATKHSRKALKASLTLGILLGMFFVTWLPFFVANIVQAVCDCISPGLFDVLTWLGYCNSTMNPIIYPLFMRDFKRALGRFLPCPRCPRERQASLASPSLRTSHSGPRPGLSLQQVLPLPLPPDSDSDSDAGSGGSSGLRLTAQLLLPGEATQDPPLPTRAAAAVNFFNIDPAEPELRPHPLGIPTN

[32] = molecular target: T1, GABA-A receptor; anion channel (Rattus norvegicus) (UniProt O09028+P15431+P18506+P18508+P19969+P20236+P23574+P23576+P28471+P28473+P30191+P62813+P63079+P63138+Q91ZM7+Q9ES14); conditions: Compound concentration 10.0 uM
[33] = molecular target: cGMP-dependent protein kinase 1 (Homo sapiens) (UniProt Q13976); experiment: PKG1beta(h) Millipore kinase panel; conditions: Compound concentration 1.0 uM
[34] = molecular target: Casein kinase I isoform gamma-2 (Homo sapiens) (UniProt P78368); experiment: CK1gamma2(h) Millipore kinase panel; conditions: Compound concentration 1.0 uM
[35] = molecular target: Serine/threonine-protein kinase Nek6 (Homo sapiens) (UniProt Q9HC98); experiment: NEK6(h) Millipore kinase panel; conditions: Compound concentration 1.0 uM
[36] = molecular target: 5-hydroxytryptamine receptor 2C (Homo sapiens) (UniProt P28335); conditions: Compound concentration 10.0 uM
[37] = molecular target: [Pyruvate dehydrogenase (acetyl-transferring)] kinase isozyme 4, mitochondrial (Homo sapiens) (UniProt Q16654); experiment: PDHK4(h) Millipore kinase panel; conditions: Compound concentration 1.0 uM
[38] = molecular target: T1, GABA-A receptor; anion channel (Rattus norvegicus); conditions: Compound concentration 10.0 uM; remark: listed apart in the source
[39] = molecular target: Adenosine receptor A3 (Homo sapiens) (UniProt P0DMS8); conditions: Compound concentration 10.0 uM
[40] = molecular target: Serine/threonine-protein kinase 38 (Homo sapiens) (UniProt Q15208); experiment: NDR1(h) Millipore kinase panel; conditions: Compound concentration 1.0 uM
[41] = molecular target: CDK12/Cyclin K (Homo sapiens) (UniProt O75909+Q9NYV4); experiment: CDK12/cyclinK(h) Millipore kinase panel; assay type: protein-complex assay; conditions: Compound concentration 1.0 uM
[42] = molecular target: Serine/threonine-protein kinase Nek4 (Homo sapiens) (UniProt P51957); experiment: NEK4(h) Millipore kinase panel; conditions: Compound concentration 1.0 uM
[43] = molecular target: Serine/threonine-protein kinase PAK 1 (Homo sapiens) (UniProt Q13153); experiment: PAK1(h) Millipore kinase panel; conditions: Compound concentration 1.0 uM
[44] = molecular target: PI3-kinase p110-delta/p85-alpha (Homo sapiens) (UniProt P27986+O00329); experiment: PI3 Kinase (p110d/p85a)(h) Millipore kinase panel; assay type: protein-complex assay; conditions: Compound concentration 1.0 uM
[45] = molecular target: Insulin receptor-related protein (Homo sapiens) (UniProt P14616); experiment: IRR(h) Millipore kinase panel; conditions: Compound concentration 1.0 uM
[46] = molecular target: Vasopressin V1a receptor (Homo sapiens) (UniProt P37288); conditions: Compound concentration 10.0 uM
Vasopressin V1a receptor (Homo sapiens), sequence (P37288 whole entry, looked up): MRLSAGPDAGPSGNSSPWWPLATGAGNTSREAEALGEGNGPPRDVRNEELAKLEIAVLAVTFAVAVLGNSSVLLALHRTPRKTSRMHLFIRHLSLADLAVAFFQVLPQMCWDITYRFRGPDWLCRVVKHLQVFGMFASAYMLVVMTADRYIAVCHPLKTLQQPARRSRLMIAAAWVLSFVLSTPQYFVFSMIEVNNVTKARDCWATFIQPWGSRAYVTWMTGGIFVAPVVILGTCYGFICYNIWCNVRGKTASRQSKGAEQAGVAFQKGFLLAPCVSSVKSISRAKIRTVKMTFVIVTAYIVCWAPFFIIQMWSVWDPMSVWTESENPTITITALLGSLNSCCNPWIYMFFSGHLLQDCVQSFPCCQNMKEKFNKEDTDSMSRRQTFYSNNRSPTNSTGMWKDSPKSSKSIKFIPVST

Measured: inhibition

CC[C@@H](Nc1c(C#N)c(-c2ccc(-c3cccc(C)c3F)cc2)nc2cnccc12)C(=O)O [BAY-091]
inactive: [1] -2% | [2] 3.01% | [3] 5.02% | [4] 9.43% | [5] -4.99% | [6] 1% | [7] 7.33% | [8] 5% | [9] -4.36% | [10] 19.4% | [11] 9.33% | [12] 9.6% | [13] 4.51% | [14] -0.68% | [15] 10% | [16] 0.08% | [17] 3.04% | [18] 10.5% | [19] 13% | [20] 5.69% | [21] 12% | [22] 2.84% | [23] -0.39% | [24] 22% | [25] 14.8% | [26] 16% | [27] 9.55% | [28] -3.06% | [29] 5.46% | [30] 3.83% | [31] -2.99% | [32] 3% | [33] 8.22% | [34] 12.4% | [35] 9.31% | [36] -9.38% | [37] 9.88% | [38] 29.9% | [39] 21% | [40] -6% | [41] 10.3% | [42] 32.1% | [43] 23.8% | [44] 30.9% | [45] 6.25% | [46] -3%
